Measurements reported in patent publication US20050059641A1, “Compositions and methods for treating and preventing cancer using analogs of vitamin D” (Aphios Corporation, priority 2003, published 2005).
Entries after “also recorded” stand apart in the source; their conditions may differ.

Tests used:
[1] = system: prostate tumor induced with PC-3 cells; test: in vivo effect in mice bearing prostate tumor induced with PC-3 cells; design: species or system male SCID mice; settings: SCID mice with PC-3 tumor
Procedure: Sesame oil solutions (200 μl) of either 25-OH-D3 (10 μg) or 25-OH-D3-3-BE (13.2 μg, molar equivalent of 25-OH-D3) or vehicle were administered i.p. in alternate days for two weeks. […] At the end, mice were anesthetized, tumors were removed, and blood was collected. Tumors were embedded in paraffin and sections were made.

[2] = system: keratinocytes (primary cells); test: 3H-thymidine incorporation assay, keratinocytes; type: cell-based, human; settings: 10^−6M
From the text: (§1) It is well known that secretory epithelial cells are the main sites for the development of cancers of the breast, prostate and various other organs.
(§2) In a study, investigators compared the growth-inhibitory effects of 25-OH-D3-3-BE and 1,25(OH)2D3 in several VDR-positive epithelial cells, e.g. keratinocytes (primary skin cells), MCF-7 cells (breast cancer cells), hormone-sensitive LNCaP and hormone-refractory PC3 cells (prostate cancer cells), and PZ-HPV-7 (papillovirus immortalized normal prostate cells) by using ^3H-thymidine incorporation assays (FIGS. 14-19).

caspase-3 = test: Caspase Colorimetric assay, caspase-3; type: cell-based; settings: PC3 cells, 10 nM, 14 hours
Procedure: Caspase-activity: There are several markers for apoptosis, and caspase activity is one of them; and their levels normally go up under apoptotic conditions. Investigators determined the levels of caspases 3, 8 and 9 by Caspase Colorimetric assay kits from R&D Systems (Minneapolis, Minn.) and used according to the manufacturer's instructions. Briefly, PC3 cells (1×10^6) were treated with 10 nM of 1,25(OH)2D3, 25-OH-D3 or 25-OH-D3-3-BE for 14 hours in culture medium (DMEM, 10% FBS and antibiotics). The cells were collected by centrifugation at 1000 RPM for 5 min. The cell pellet was lysed with lysis buffer, and the lysate was incubated on ice for 10 min. and centrifuged for 10,000 RPM for 5 min. Protein was estimated using Bradford protein estimation kit (BioRad). The enzymatic reactions were carried out in 96 well plate. For each reaction 100 μg lysate protein in 50 μl was incubated with 50 μl of 2×reaction buffer and 5 μl of caspase-3 or caspase-8 or caspase-9 calorimetric substrate for 2 h at 37° C. The absorbance was determined at 405 nm.

[3] = system: LNCaP cells (prostate cancer cells); test: 3H-thymidine incorporation assay, LNCaP; type: cell-based, human; settings: 10^−6M
Procedure: The inventors further studied the effect of 1,25(OH)2D3-3-BE on LNCAP cells (most closely resembling human hormone-sensitive prostate cancer) and PZ-HPV-7 cells (immortalized normal prostate cells). The cells were treated with ethanol or 10^−6M of either 1,25(OH)2D3 or 1,25(OH)2D3-3-BE for 16 hours and the effect on proliferation was determined by ^3H-thymidine incorporation assays as described earlier. The viable cell count was determined by Methylene blue assay. The Methylene blue assay is a simple colorimetric method that is widely used to determine the viable cell count.
The inventors studied dose-dependency of antiproliferation and cytotoxicity by 1,25(OH)2D3 or 1,25(OH)2D3-3-BE in LNCaP cells. The cells were treated with 10^−8-10^−6M of either 1,25(OH)2D3 or 1,25(OH)2D3-3-BE or ethanol (used as a control). The effect on proliferation and viable cell count were determined by using ^3H-thymidine incorporation and Methylene blue assay respectively. […]
as §2

vitamin D receptor, VDR = vitamin D receptor, VDR (Homo sapiens, UniProt P11473); test: cross-linking (affinity labeling) of the hormone-binding pocket of VDR; settings: FIG. 13
From the text: The present invention is directed, in part, to novel analogs of 1,25(OH)2D3, for example, 1,25(OH)2D3-3-BE and 25(OH)2D3-3-BE. The inventors have developed a novel affinity alkylating analog of 1,25(OH)2D3 which cross links 1,25(OH)2D3 to the hormone-binding pocket of VDR via a nucleophilic displacement reaction between a Cys residue in the hormone-binding pocket (Cys288) and a reactive bromoacetate group at the 3-position of 1,25(OH)2D3 (Ray R, Ray S., and Holick M. F. 1″,25-dihydroxyvitamin D3-3-deoxy-3$-bromoacetate, an affinity labeling analog of 1″,25-dihydroxyvitamin D3. (1994) Bioorg. Chem. 22 276-283; Ray R, Swamy N, MacDonald P N, Ray S, Haussler M R, and Holick M F. (1996) Affinity labeling of 1″,25-dihydroxyvitamin D3 receptor. J. Biol Chem 271 2012-2017; Swamy N, Kounine M, and Ray R. (1997) Identification of the subdomain in the nuclear receptor for the hormonal form of vitamin D3, 1″,25-dihydroxyvitamin D3, vitamin D receptor, that is covalently modified by an affinity labeling reagent. Arch Biochem Biophys 348 91-95; Chen M L, Ray S, Swamy N, Holick M F, and Ray R. Mechanistic studies to evaluate the enhanced anti-proliferation of human keratinocytes by 1α,25-dihydroxyvitamin D3-3-bromoacetate, a covalent modifier of vitamin D receptor, compared to 1α,25-dihydroxyvitamin D3. (1999) Arch. Biochem. Biophys. […]

[4] = system: PC3 cells (prostate cancer cells); test: 3H-thymidine incorporation assay, PC3; type: cell-based, human; settings: PC-3 cells, 10^−6M
From the text: as §1, §2
Since 25-OH-D3-3-BE contains an ester bond, its hydrolysis by esterases in growing cells would produce equimolar amounts of bromoacetic acid (BAA) and 25-OH-D3 (see, FIG. 21).
Furthermore, fetal calf serum (FCS) contains many proteins, including vitamin D-binding protein, which potentially could absorb 25-OH-D3-3-BE before it reacts with VDR. Typically, the assays described herein were carried out in a media containing 10% FCS (after serum-depriving the cells for 15 hours).

vitamin D receptor, VDR, sequence (P11473 whole entry): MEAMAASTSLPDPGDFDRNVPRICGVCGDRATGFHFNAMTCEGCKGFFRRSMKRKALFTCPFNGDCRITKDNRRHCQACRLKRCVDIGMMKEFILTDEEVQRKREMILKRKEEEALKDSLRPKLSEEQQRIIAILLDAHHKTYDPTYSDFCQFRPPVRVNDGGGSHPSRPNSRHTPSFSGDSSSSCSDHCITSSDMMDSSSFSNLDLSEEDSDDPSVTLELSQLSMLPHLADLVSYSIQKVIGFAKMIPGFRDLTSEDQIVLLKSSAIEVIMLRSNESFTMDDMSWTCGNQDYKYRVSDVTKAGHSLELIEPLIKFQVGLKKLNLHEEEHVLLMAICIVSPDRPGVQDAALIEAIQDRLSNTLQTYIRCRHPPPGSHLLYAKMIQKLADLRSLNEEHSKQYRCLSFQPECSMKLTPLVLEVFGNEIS

**Q.** Which results are given for `C=C1CCC(OC(=O)CBr)CC1=CC=C1CCCC2(C)C1CCC2C(C)CCCC(C)(C)O` (centres unmarked) [25-OH-D3-3-BE, 25-hydroxyvitamin D3-3-bromoacetate]?
**A.** loss of body weight ([1]; 13.2 μg i.p. in alternate days for two weeks): no significant loss of body weight; Hematoxylin-Eosin staining of the tumor sections ([1]; 13.2 μg i.p. in alternate days for two weeks, versus vehicle (sesame oil)): considerably less cellular; condition of the mice at the end of treatment ([1]; 25-OH-D3 10 μg or 25-OH-D3-3-BE 13.2 μg (molar equivalent) i.p. in alternate days for two weeks): viable; growth-inhibitory effect (3H-thymidine incorporation) [2]: antiproliferative; lethal to the cells [2]: not; Caspase-3 induction (caspase-3): induced; growth-inhibitory effect (3H-thymidine incorporation) [3]: stronger antiproliferative agent than 1,25(OH)2D3; lethal to the cells [3]: lethal; cross-linking (labeling) of the hormone-binding pocket of VDR (vitamin D receptor, VDR): specifically cross-links to the hormone binding pocket of VDR; also recorded: specifically labels the hormone-binding pocket of VDR; growth-inhibitory effect (3H-thymidine incorporation) [4]: stronger antiproliferative agent than 1,25(OH)2D3; lethal to the cells [4]: lethal
